{
  "source": "patent US20240277695A1",
  "about": "“FOXO INHIBITORS FOR USE IN THE TREATMENT OF DISEASES CAUSED BY ABNORMAL PROCESSING OF TDP-43 AND/OR FUS PROTEINS” (Administración General de la Comunidad Autónoma de Euskadi, priority 2020, published 2024)",
  "key": {"[1]": {"test_system": "TDP-43 or FUS-silenced human immortalized myoblasts (cell line 8220)", "test": "Metabolic flux analysis (ECAR/OCR) in TDP-43 or FUS-silenced myoblasts", "type": "cell-based", "settings": "30 nM", "source_text": "The translocation of TDP-43 to cytoplasm is involved in myoblast differentiation and myotube generation (see reference 14). […] Thus, given the potential implication of TDP-43 and FUS in myogenesis, we modelled the loss-of-function of these genes in the human immortalized myoblast cell line 8220 by treating these cells with shRNA-expressing lentiviral particles for TDP-43 or FUS, and further analyzed any change on cell morphology, growth and myogenic capacity (FIG. 1D).\nMolecular signaling factors and reprogramming of energy metabolism are considered crucial regulators of myogenesis during adult muscle regeneration. Since TDP-43 controls skeletal muscle glucose homeostasis, we wanted to investigate whether myogenic defects induced by loss of TDP-43, and in extension of FUS, may be mediated by abnormalities of glucose metabolism. Regarding the latest, various studies conducted in Drosophila, zebrafish and mouse myoblasts have highlighted glucose metabolism as part of the core myogenic program because of its ability to provide both the rapid source of energy and the building blocks (amino acids and nucleotides) that are required for biomass production during the formation of syncytial muscles. […]"}, "MYOD": {"test_system": "MYOD", "test": "MYOD expression in silenced myoblasts", "type": "cell-based, human", "settings": "30 nM; shTDP-43 and shFUS-treated myoblasts", "source_text": "(§1) Myoblasts treated with control shRNA differentiated and formed MYHC-positive myotubes 2 days after reaching 100% confluence (FIG. 1I). However, TDP-43 and FUS knockdown affected the natural capacity of cultured myoblasts to fuse and form myotubes: shTDP-43-treated myoblasts remained undifferentiated for at least 2 days after reaching 100% confluence, and shFUS-treated myoblasts formed fewer myotubes (FIG. 1I). […] We then analyzed levels of MYOD and MYOG (Myogenin), two transcription factors that are required for myoblast commitment, differentiation and fusion, respectively.\n(§2) In addition, treatment with the AS1842856 inhibitor modifies the expression of some of the FoxO-regulated genes that are crucial for proper myogenic differentiation."}, "[2]": {"test_system": "primary myoblasts from patients with ALS", "test": "Myogenic capacity of primary myoblasts from patients with ALS", "type": "cell-based, human", "settings": "30 nM; primary myoblasts from sporadic and familial ALS patients", "source_text": "We looked at preliminary links between the findings in genetically-induced myoblasts and features of myoblasts from patients with ALS. To this aim, we cultured primary myoblasts obtained from muscle biopsies of two patients with ALS (patient 1 is sporadic [sALS] and patient 2 is familial [fALS]) and one control. […] Changes in TDP-43 localization were accompanied by an altered subcellular distribution of FoxO1, as reflected by increased levels of FoxO1 and FoxO3 in nuclei (FIG. 6A,C) and enhanced nuclear-to-cytosolic ratio in both patients (FIG. 6C). Remarkably, nuclear localizations of TDP-43 and FoxO1 were inversely associated in patient 2 (FIG. 6D).\nTo study whether these pathological features were linked to functional outcomes of ALS muscle, we studied the myogenic capacity of ALS myoblasts and the effect of FoxO inhibition."}, "[3]": {"test_system": "TDP-43 or FUS-silenced human immortalized myoblasts (cell line 8220)", "test": "Myogenic differentiation (MYHC-positive myotubes, differentiation index) of silenced myoblasts", "type": "cell-based", "settings": "30 nM", "source_text": "We then studied the effect of gene silencing on the myogenic process. Myogenesis was first induced by an established protocol consisting on medium replacement, in which myoblasts were exposed to differentiation medium two days after infection with lentiviral particles. However, TDP-43 and FUS knockdown myoblasts were not able to survive to the differentiating challenge. Then, we switched to a more physiologically-relevant myogenic scenario that consists on allowing spontaneous differentiation and fusion when myoblasts reach 100% confluence. Lentiviral particles of scramble shRNA, shTDP-43 or shFUS were added to the medium when […] myoblasts were at 30-40% confluence (FIG. 1D).\nas §1\nWe next explored the consequences of pharmacological or genetic inhibition of FoxO on metabolism and myogenesis in TDP-43 and FUS-silenced myoblasts. We treated all the different models of myoblasts with the compound AS1842856 at 30 nM during proliferation and let them differentiate, adding the compound at the same concentration every 2 days for 8 days. At the selected concentration, this compound binds selectively to the dephosphorylated FoxO1, and to less extent dephosphorylated FoxO3, interfering with DNA interaction and thereby resulting in inhibition of FoxO transactivation.\nas §2"}, "[4]": {"test_system": "shTDP-43-treated myoblasts", "test": "Glu/Asp and Glu/Gln metabolite ratios by HPLC-MS and 1H-NMR in silenced myoblasts", "type": "cell-based, human", "settings": "30 nM", "source_text": "One of the key endogenous factors that keep glycolytic flux ongoing is cytosolic NAD^+. In anaerobic muscles, malate-aspartate and glycerol-phosphate shuttles as well as glutaminolysis are main metabolic pathways that recycle cytosolic NAD+to support glycolysis (FIG. 3A). […] With respect malate-aspartate shuttle and glutaminolysis, TDP-43 silencing led to reduced levels of OGC1 (oxoglutarate carrier 1), GOT1 (glutamic-oxaloacetic transaminase), MDH1 (malate dehydrogenase), and ME1 (malic enzyme), but increased levels of glutaminase (FIG. 3B). […] We have also analyzed intermediate metabolites of malate-aspartate shuttle and glutaminolysis, including glutamate (Glu), glutamine (Gln) and aspartate (Asp), by means of HPLC-MS and ^1H-NMR, and calculated the ratios Glu/Asp and Glu/Gln to estimate fluxes of these reactions. […] In this sense, an abnormal glutaminolysis may account for the defects of NAD^+ recycling in FUS-silenced myoblasts.\nWe next explored the consequences of pharmacological or genetic inhibition of FoxO on metabolism and myogenesis in TDP-43 and FUS-silenced myoblasts. We treated all the different models of myoblasts with the compound AS1842856 at 30 nM during proliferation and let them differentiate, adding the compound at the same concentration every 2 days for 8 days. […]"}},
  "note": "Entries after “also recorded” stand apart in the source; their conditions may differ.",
  "data": [
    {"compound": "CCn1cc(C(=O)O)c(=O)c2c(N)c(F)c(NC3CCCCC3)cc21", "note": "[AS1842856]", "values": [
      {"measurement": "repressed glycolytic traits (glucose- and oligomycin-stimulated ECAR)", "setting": "[1]; proliferating myoblasts silenced for either TDP-43 or FUS", "value": "significant recovery"},
      {"measurement": "mitochondrial ATP production", "setting": "[1]; shTDP-43 and shFUS-treated myoblasts", "value": "enhanced mitochondrial ATP production; also recorded: improved the mitochondrial ATP production"},
      {"measurement": "expression of MYOD", "setting": "MYOD", "value": "increased the expression of MYOD"},
      {"measurement": "myogenic abnormalities", "setting": "[2]", "value": "alleviated"},
      {"measurement": "myogenic capacity (MYHC-positive myotubes, differentiation index)", "setting": "[3]; FUS-silenced myoblasts", "value": "improved the myogenic capacity"},
      {"measurement": "myogenic capacity (MYHC-positive myotubes, differentiation index)", "setting": "[3]; TDP-43 silenced myoblasts", "value": "rescued the myogenic arrest"},
      {"measurement": "myogenic capacity (MYHC-positive myotubes, differentiation index)", "setting": "[3]; control myoblasts", "value": "little effects"},
      {"measurement": "Glu/Asp ratio", "setting": "[4]", "value": "increase Glu/Asp ratio to the levels of control myoblasts"},
      {"measurement": "Glu/Gln ratio", "setting": "[4]", "value": "without affecting Glu/Gln ratio"}
    ]}
  ]
}
